Values of other authors, collected in patent US11331424B2, “Apparatus, systems and methods for delivery of medication to the brain to treat neurological conditions” (InCube Labs, LLC, priority 2009, dated 2022).
Where two headings read alike, the source gives them in different places.

Legend:
[1] = oral administration
[2] = tested on: evoked and spontaneous epileptic neural activity; details: epileptic animal models
[3] = many patients; significant = more than about 10% increase in urine production or more than about 5% decrease in plasma electrolyte
[4] = tested on: evoked and spontaneous epileptic neural activity; details: human patients

In the case of `NS(=O)(=O)c1cc(C(=O)O)c(NCc2ccco2)cc1Cl` [Furosemide], the “time to get into the patient's blood stream” value [1] is listed as no less than 30 min, the “effect on evoked and spontaneous epileptic neural activity and subsequent cortical spreading depression” value [2] is listed as “block evoked and spontaneous epileptic neural activity and subsequent cortical spreading depression” and the “threshold dosage which produces a significant increase in diuresis and/or significant decrease in the patient's electrolyte level(s)” value [3] is listed as “about 20 mg”. For the same compound, the “effect on evoked and spontaneous epileptic neural activity and subsequent cortical spreading depression” value [4] was “block evoked and spontaneous epileptic neural activity and subsequent cortical spreading depression”.
